Measured values as given in patent US12084436B2, “Heterocyclic compound” (Takeda Pharmaceutical Company Limited, priority 2019, dated 2024).

Molecular target: T1, HDAC6 enzyme (Homo sapiens, UniProt Q9UBN7)
T1 construct: prepared by transducing full length HDAC6 gene into Sf-9 insect cells; GST; purchased SignalChem; host or cells: Sf-9 insect cells
T1 sequence (Q9UBN7 1-1215): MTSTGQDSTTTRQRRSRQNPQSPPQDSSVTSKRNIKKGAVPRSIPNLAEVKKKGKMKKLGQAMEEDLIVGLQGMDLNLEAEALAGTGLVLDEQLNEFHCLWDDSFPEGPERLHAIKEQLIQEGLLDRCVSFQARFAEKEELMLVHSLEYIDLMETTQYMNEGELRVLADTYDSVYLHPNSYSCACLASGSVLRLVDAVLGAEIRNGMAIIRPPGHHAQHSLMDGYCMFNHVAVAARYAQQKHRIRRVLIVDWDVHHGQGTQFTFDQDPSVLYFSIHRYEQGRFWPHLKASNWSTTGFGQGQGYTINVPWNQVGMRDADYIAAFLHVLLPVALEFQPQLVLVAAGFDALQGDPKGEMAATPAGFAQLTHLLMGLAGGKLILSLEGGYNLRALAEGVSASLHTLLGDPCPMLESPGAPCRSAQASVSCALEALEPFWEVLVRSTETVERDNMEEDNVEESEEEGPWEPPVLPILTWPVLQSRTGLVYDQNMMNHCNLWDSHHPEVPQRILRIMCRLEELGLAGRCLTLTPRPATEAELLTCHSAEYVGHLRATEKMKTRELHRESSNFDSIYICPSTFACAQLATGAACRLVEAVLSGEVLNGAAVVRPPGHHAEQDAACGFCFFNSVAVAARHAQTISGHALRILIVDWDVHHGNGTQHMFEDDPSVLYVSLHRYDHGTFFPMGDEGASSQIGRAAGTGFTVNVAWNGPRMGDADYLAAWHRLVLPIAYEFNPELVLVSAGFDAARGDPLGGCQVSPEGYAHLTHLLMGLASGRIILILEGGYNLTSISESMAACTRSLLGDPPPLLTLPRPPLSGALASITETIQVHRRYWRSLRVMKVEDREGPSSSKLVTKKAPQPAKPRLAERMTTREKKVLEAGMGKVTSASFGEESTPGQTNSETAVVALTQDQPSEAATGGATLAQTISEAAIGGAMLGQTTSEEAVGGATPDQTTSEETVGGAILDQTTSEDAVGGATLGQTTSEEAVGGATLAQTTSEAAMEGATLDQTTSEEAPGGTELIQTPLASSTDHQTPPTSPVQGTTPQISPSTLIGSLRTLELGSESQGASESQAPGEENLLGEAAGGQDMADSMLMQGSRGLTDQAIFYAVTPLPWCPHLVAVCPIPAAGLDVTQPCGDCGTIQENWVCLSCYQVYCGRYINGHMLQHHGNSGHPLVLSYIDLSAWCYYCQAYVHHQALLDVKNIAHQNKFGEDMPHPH
Assay: HDAC6 enzyme inhibitory assay (HDAC-Glo I/II Assay kit, luminescence)
Assay type: biochemical
Conditions: 10 μM test compound, wells without enzyme = 100% inhibition; for inhibition at 10 µM: read-out: HDAC6 inhibitory rate (%) (10 μM)
Method: HDAC6 Enzyme Inhibitory Assay
HDAC6 enzyme prepared by transducing full length HDAC6 gene into Sf-9 insect cells and purifying by GST affinity column were purchased from SignalChem. Using this enzyme, HDAC6 enzyme inhibitory activities of the compound of the present invention were evaluated. Enzymes were used after preserved at −70° C. HDAC6 enzyme inhibitory activity of the compound of the present invention was measured using HDAC-Glo™ I/II Assay kit (Promega) according to the following experimental method. The test compound diluted with assay buffer (24 mM Tris-HCl (pH 7.5), 1 mM MgCl2, 0.35 mM KCl, 135 mM NaCl, 0.6 mM Glutathione, 0.01% Tween-20) was added to a 384-well plate by each 2 μL. Then, HDAC6 enzyme solution diluted with assay buffer was added thereto by each 4 μL, and the plate was incubated at room temperature for 60 min. After incubated, HDAC substrate-Developer solution prepared according to Promega protocol attached to the assay kit was added to the 384-well plate by each 2 μL, and the enzyme reaction was started. After reacting at room temperature for 20 min, luminescence level was measured using plate reader Envision (PerkinElmer). The inhibitory activity of each compound of Example was calculated as a relative activity value when luminescence level in wells without enzyme is considered as 100% inhibition.

| SMILES | inhibition at 10 µM [%] | HDAC6 inhibitory rate (%) (10 μM) (10 µM) |
| --- | --- | --- |
| COCCOC(=O)N(Cc1ccc(F)cc1)N1Cc2ccc(-c3nnc(C(F)F)o3)cc2C1=O [Example 11c, 2-methoxyethyl {6-[5-(difluoromethyl)-1,3,4-oxadiazol-2-yl]-1-oxo-1,3-dihydro-2H-isoindol-2-yl}[(4-fluorophenyl)methyl]carbamate] | 99 | – |
| CN1C(=O)c2cc(-c3nnc(C(F)F)o3)ccc2CC1c1ccc(F)cc1 (single isomer, unassigned; isomer 1) [Example 41b, 7-[5-(difluoromethyl)-1,3,4-oxadiazol-2-yl]-3-(4-fluorophenyl)-2-methyl-3,4-dihydroisoquinolin-1(2H)-one (Optical Isomer 1)] | 99 | – |
| CN(Cc1ccc(F)cc1)N1Cc2ccc(-c3nnc(C(F)F)o3)cc2C1=O [Example 28c, 6-[5-(difluoromethyl)-1,3,4-oxadiazol-2-yl]-2-{[(4-fluorophenyl)methyl](methyl)amino}-2,3-dihydro-1H-isoindol-1-one] | 99 | – |
| N#Cc1cccc(Cn2ccnc2-c2cc(-c3nnc(C(F)F)o3)ccn2)n1 [Example 94a, 6-[(2-{4-[5-(difluoromethyl)-1,3,4-oxadiazol-2-yl]pyridin-2-yl]-1H-imidazol-1-yl)methyl]pyridine-2-carbonitrile] | 99 | – |
| CC1(c2ccc(F)cc2)Oc2ccc(-c3nnc(C(F)F)o3)cc2C(=O)N1CC(F)F (stereo not shown) [Example 56b, 3-(2,2-difluoroethyl)-6-[5-(difluoromethyl)-1,3,4-oxadiazol-2-yl]-2-(4-fluorophenyl)-2-methyl-2,3-dihydro-4H-1,3-benzoxazin-4-one] | 100 | – |
| CN(Cc1ccccc1N1CCOCC1)N1Cc2ccc(-c3nnc(C(F)F)o3)cc2C1=O [Example 58c, 6-[5-(difluoromethyl)-1,3,4-oxadiazol-2-yl]-2-(methyl{[2-(morpholin-4-yl)phenyl]methyl}amino)-2,3-dihydro-1H-isoindol-1-one] | 100 | – |
| CC1(c2ccc(F)cc2)Oc2ccc(-c3nnc(C(F)F)o3)cc2C(=O)N1CC1CC1 (stereo not shown) [Example 47b, 3-(cyclopropylmethyl)-6-[5-(difluoromethyl)-1,3,4-oxadiazol-2-yl]-2-(4-fluorophenyl)-2-methyl-2,3-dihydro-4H-1,3-benzoxazin-4-one] | 101 | – |
| N#Cc1ccc(Cn2ccnc2-c2cc(F)cc(-c3nnc(C(F)F)o3)c2)cn1 [Example 66a, 5-[(2-{3-[5-(difluoromethyl)-1,3,4-oxadiazol-2-yl]-5-fluorophenyl]-1H-imidazol-1-yl)methyl]pyridine-2-carbonitrile] | 98 | – |
| O=C1COCC(Cc2ccccn2)N1c1cc(F)cc(-c2nnc(C(F)F)o2)c1 (stereo not shown) [Example 42a] | 68 | – |
| O=C(OCC(F)F)N(Cc1cnn(C2CC2)c1)N1Cc2ccc(-c3nnc(C(F)F)o3)cc2C1=O [Example 13c, 2,2-difluoroethyl [(1-cyclopropyl-1H-pyrazol-4-yl)methyl]{6-[5-(difluoromethyl)-1,3,4-oxadiazol-2-yl]-1-oxo-1,3-dihydro-2H-isoindol-2-yl}carbamate] | 99 | – |
| CN1C(=O)c2cc(-c3nnc(C(F)F)o3)ccc2CC1(C)c1ccc(F)cc1 (stereo not shown) [Example 13b, 7-[5-(difluoromethyl)-1,3,4-oxadiazol-2-yl]-3-(4-fluorophenyl)-2,3-dimethyl-3,4-dihydroisoquinolin-1(2H)-one] | 99 | – |
| CN1C(=O)c2cc(-c3nnc(C(F)F)o3)ccc2CC1c1ccc(F)cc1 (stereo not shown) [Example 33b, 7-[5-(difluoromethyl)-1,3,4-oxadiazol-2-yl]-3-(4-fluorophenyl)-2-methyl-3,4-dihydroisoquinolin-1(2H)-one] | 100 | – |
| CN1C(=O)c2cc(-c3nnc(C(F)F)o3)ccc2OC1(C)c1ccc(F)cc1 (single isomer, unassigned; isomer 1) [Example 8b, 6-[5-(difluoromethyl)-1,3,4-oxadiazol-2-yl]-2-(4-fluorophenyl)-2,3-dimethyl-2,3-dihydro-4H-1,3-benzoxazin-4-one (Optical Isomer 1)] | 100 | – |
| CN(CC1CCOCC1)N1Cc2ccc(-c3nnc(C(F)F)o3)cc2C1=O [Example 41c, 6-[5-(difluoromethyl)-1,3,4-oxadiazol-2-yl]-2-{methyl[(oxan-4-yl)methyl]amino}-2,3-dihydro-1H-isoindol-1-one] | 99 | – |
| O=C(OC1CCOCC1)N(Cc1ccc(F)cc1)N1Cc2ccc(-c3nnc(C(F)F)o3)cc2C1=O [Example 23c, oxan-4-yl {6-[5-(difluoromethyl)-1,3,4-oxadiazol-2-yl]-1-oxo-1,3-dihydro-2H-isoindol-2-yl}[(4-fluorophenyl)methyl]carbamate] | 101 | – |
| CN(C)c1ccc(CN(C)N2Cc3ccc(-c4nnc(C(F)F)o4)cc3C2=O)cc1 [Example 54c, 6-[5-(difluoromethyl)-1,3,4-oxadiazol-2-yl]-2-[{[4-(dimethylamino)phenyl]methyl} (methyl)amino]-2,3-dihydro-1H-isoindol-1-one] | 97 | – |
| CN1C(=O)c2cc(-c3nnc(C(F)F)o3)cnc2CC1(C)c1ccc(F)cc1 (single isomer, unassigned; isomer 1) [Example 27b, 3-[5-(difluoromethyl)-1,3,4-oxadiazol-2-yl]-7-(4-fluorophenyl)-6,7-dimethyl-7,8-dihydro-1,6-naphthyridin-5(6H)-one (optical isomer 1)] | – | 56 |
| Fc1cc(-c2nnc(C(F)F)o2)cc(-c2nccn2Cc2cccnn2)c1 [Example 26a] | 96 | – |
| CCOC(=O)CN(C)N1Cc2ccc(-c3nnc(C(F)F)o3)cc2C1=O [Example 46c, ethyl N-{6-[5-(difluoromethyl)-1,3,4-oxadiazol-2-yl]-1-oxo-1,3-dihydro-2H-isoindol-2-yl}-N-methylglycinate] | 99 | – |
| Cc1nc(Cn2ccnc2-c2cc(F)cc(-c3nnc(C(F)F)o3)c2)sc1C [Example 65a, 2-(difluoromethyl)-5-(3-{1-[(4,5-dimethyl-1,3-thiazol-2-yl)methyl]-1H-imidazol-2-yl}-5-fluorophenyl)-1,3,4-oxadiazole] | 100 | – |
| FC(F)c1nnc(-c2ccnc(-n3ncc4c3C(c3ccccc3)CCC4)c2)o1 (stereo not shown) [Example 77a] | 99 | – |
| O=C1NN(C2CCOCC2)Cc2ccc(-c3nnc(C(F)F)o3)cc21 [Example 28b, 7-[5-(difluoromethyl)-1,3,4-oxadiazol-2-yl]-3-(oxan-4-yl)-3,4-dihydrophthalazin-1(2H)-one] | 97 | – |
| O=C1NN(CC(F)(F)F)Cc2ccc(-c3nnc(C(F)F)o3)cc21 [Example 15b, 7-[5-(difluoromethyl)-1,3,4-oxadiazol-2-yl]-3-(2,2,2-trifluoroethyl)-3,4-dihydrophthalazin-1(2H)-one] | 88 | – |
| CN1C(=O)c2cc(-c3nnc(C(F)F)o3)cnc2CC1(C)c1ccc(F)c(F)c1 (stereo not shown) [Example 38b, 3-[5-(difluoromethyl)-1,3,4-oxadiazol-2-yl]-7-(3,4-difluorophenyl)-6,7-dimethyl-7,8-dihydro-1,6-naphthyridin-5(6H)-one] | 101 | – |
| CN(Cc1cc(Cl)ccc1O)N1Cc2ccc(-c3nnc(C(F)F)o3)cc2C1=O [Example 42c, 2-{[(5-chloro-2-hydroxyphenyl)methyl](methyl)amino}-6-[5-(difluoromethyl)-1,3,4-oxadiazol-2-yl]-2,3-dihydro-1H-isoindol-1-one] | 98 | – |
